How the values were obtained:
CDK2^D86A = molecular target: T1, CDK2^D86A (Homo sapiens, UniProt P24941, D86A); test: ESI-MS of covalent adduct, mutant; details: CDK2^D86A/cyclin A, overnight incubation
T1 construct: GST (N, cleaved yes); made in house; host or cells: Escherichia coli; phosphorylated in vitro by GST-CAK
Protocol: (§1) These residues were individually mutated to an alanine, glutamate, or valine, respectively, and the resulting mutant CDK2/cyclin A complexes were analyzed by ESI-MS following overnight incubation with either NU6300 (exact mass 413.15) or DMSO (Figure S2 and Table S1).
(§2) Figure S2, Related to Figure 3. Identification of the site of CDK2 modification by NU6300. (A-G) Single site CDK2 mutants CDK2D86A, CDK2K88E, and CDK2K89V identify the site of CDK2 modification by NU6300. These mutations change the CDK2 sequence to that of CDK7 and are known not to disrupt the CDK2 fold. Mass spectra of CDK2 mutants:
(§3) (A), (D), CDK2D86A/cyclin A; (B), (E), CDK2K88E/cyclin A; (C), (F), CDK2K89V/cyclin A (3 mg/mL) pre-incubated overnight in the absence/presence of NU6300. (A-C), positive controls, CDK2/cyclin A mutants assayed in the absence of NU6300; (D-F), CDK2/cyclin A mutants pre-incubated with NU6300. For each mutant, the experimentally determined and […]
(§4) (G) Protein kinase activity of authentic CDK2 and single site CDK2 mutants following incubation with NU6300 or NU6310. Samples were taken at the indicated number of minutes after initiation of the reaction. Note that compared to authentic CDK2, the single site Lys88 and Lys89 mutants have a slower rate of reaction (Compare LHS panels). […]

CDK2^K89V = molecular target: T2, CDK2^K89V (Homo sapiens, UniProt P24941, K89V); test: ESI-MS of covalent adduct, mutant; details: CDK2^K89V/cyclin A, overnight incubation
T2 construct: GST (N, cleaved yes); made in house; host or cells: Escherichia coli; phosphorylated in vitro by GST-CAK
Protocol: as §1, §2, §3, §4

In the case of `C=CS(=O)(=O)c1ccc(Nc2nc(OCC3CCCCC3)c3nc[nH]c3n2)cc1` [NU6300, 6-(cyclohexylmethoxy)-N-(4-(vinylsulfonyl)phenyl)-9H-purin-2-amine], the “mass added to major CDK2 species (ESI-MS)” value (CDK2^D86A) is reported as 414 Da and the “mass added to major CDK2 species (ESI-MS)” value (CDK2^K89V) is reported as “no additional mass”.

Source: publication PMC4579270, “Identification and Characterization of an Irreversible Inhibitor of CDK2” (Chemistry & Biology, 2015)
